# Measurements from patent US9782483B2, “Sigma ligands for the prevention and/or treatment of emesis induced by chemotherapy or radiotherapy” (Laboratories Del Dr. Esteve, S.A., priority 2010, dated 2017).
# Assays:
# [1] = system: ferret (Mustela putorius furo); experiment: Antiemetic properties against cisplatin-induced emesis in the conscious, unrestrained ferret (telemetry); format: in vivo; details: cisplatin 5 mg/kg i.p., 80 mg/kg i.p., multiple dose regimen (9 treatments)
# Procedure: The antiemetic properties of compound 63 were assessed in combination with intraperitoneal administration of the chemotherapeutic agent cisplatin in the conscious, unrestrained ferret (Mustela putorius furo).
# At least 12 days before their first treatment, ferrets were surgically implanted with telemetry devices. Individual body weights were recorded before treatment, at the time of telemetry device implantation, one day before the initiation of treatment and after completion of the treatment session, at the time of euthanasia, for each animal respectively.
# The animals were treated according to the following schedule: […]
# Body temperature, abdominal pressure and activity of the abdominal muscle (EMG) were recorded in treated animals, on day 0 and day 7, respectively, starting approximately 1 hour before the first administration of the vehicle and the test item and for at least 72 hours following the first administration of the vehicle and the test item. […]
# 2.7 Administration of Emetogenic Item • Route: Intraperitoneal. • Method of administration: Bolus injection using a sterile syringe and needle introduced intraperitoneally into the pelvic area. • Frequency: One administration for each animal, on day 0 or 7, one hour after the first treatment with the test item • Volume of administration: 5 mL/kg. • Individual dose volumes were calculated using the latest recorded body weight. […]
# [2] = during Patient-Controlled Analgesia Therapy; Tramèr et al. 1999; cited from earlier work
Compound,"number of emetic events during the delayed phase ([1]; delayed phase 18 to 72 hours, vs vehicle)","maximum total number of emetic events (EE) ([1]; delayed phase, between 62 and 63 hours)",antinausea effect [2]
"Cc1cc(OCCN2CCOCC2)nn1-c1ccc2ccccc2c1 [Compound 63, 4-{2-[5-Methyl-1-(naphthalen-2-yl)-1H-pyrazol-3-yloxy]ethyl}morpholine]",markedly decreased,39 EE,
Cc1nccn1CC1CCc2c(c3ccccc3n2C)C1=O (stereo not shown) [ondasetron],,,no evidence of any antinausea effect
CN1[C@@H]2CC[C@H]1C[C@@H](OC(=O)c1c[nH]c3ccccc13)C2 [tropisetron],,,no evidence of any antinausea effect
